These results are taken from patent US20040043959A1, “Combination therapies for treating methylthioadenosine phosphorylase deficient cells” (priority 2002, published 2004).

This experiment concerns the target T1, Human MTAP (Homo sapiens, UniProt Q13126).
T1 construct: six-histidine tag (His6) (N); made in house; host or cells: E. coli BL21 DE3
T1 sequence (Q13126 1-283): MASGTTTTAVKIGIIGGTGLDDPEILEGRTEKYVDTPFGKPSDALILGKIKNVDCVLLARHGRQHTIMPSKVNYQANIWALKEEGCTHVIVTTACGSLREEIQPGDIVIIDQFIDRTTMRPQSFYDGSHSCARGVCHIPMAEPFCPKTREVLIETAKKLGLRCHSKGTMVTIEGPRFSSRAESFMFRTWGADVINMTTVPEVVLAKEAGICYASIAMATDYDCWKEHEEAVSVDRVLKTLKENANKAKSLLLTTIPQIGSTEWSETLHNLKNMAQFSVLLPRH
Kind of experiment: MTAP substrate assay, coupled spectrophotometric (adenine, xanthine oxidase). It is filed as biochemical. To be noted: 2 nM MTAP; for activity at 50 µM: 10 min, compound 50 uM, relative to MTA at 50 uM, read-out: MT-A—50: initial velocity as a percentage of the initial velocity with MTA as substrate; for MT-A—10: initial velocity as a percentage of the initial velocity with MTA as substrate: compound 10 uM, relative to MTA at 10 uM. In outline: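 Detection was xanthine oxidase-coupled (0.8 units/ml), reading adenine-derived absorbance at 305 nm over 10 min in potassium phosphate/DTT buffer at 37° C, with N-His6 enzyme purified from E. coli.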

Take `CCC(C)SC[C@H]1O[C@@H](n2cnc3c(N)ncnc32)[C@H](O)[C@@H]1O` (stereo partly drawn) [2(G)(68), (2R, 3R, 4S, 5S)-2-(6-amino-9H-purin-9-yl)-5-[(sec-butylthio)methyl]tetra-hydrofuran-3,4-diol]: the activity at 50 µM stood at 45% and the “MT-A—10: initial velocity as a percentage of the initial velocity with MTA as substrate” value was 42%.

For `Nc1ncnc2c1ncn2[C@@H]1O[C@H](CSc2cnccn2)[C@@H](O)[C@H]1O` [2(G)(69), (2R, 3R, 4S, 5S)-2-(6-amino-9H-purin-9-yl)-5-[(pyrazin-2-ylthio)methyl]tetrahydro-furan-3,4-diol], the activity at 50 µM came out at 40% and the “MT-A—10: initial velocity as a percentage of the initial velocity with MTA as substrate” value was 31%.

With `Nc1ncnc2c1ncn2[C@@H]1O[C@H](CSc2ccccc2Br)[C@@H](O)[C@H]1O` [2(G)(70), (2R, 3R, 4S, 5S)-2-(6-amino-9H-purin-9-yl)-5-{[(2-bromophenyl)-thio]methyl}tetrahydro-furan-3,4-diol], the activity at 50 µM stood at 3% and the “MT-A—10: initial velocity as a percentage of the initial velocity with MTA as substrate” value is on record as 6%.

For the compound `CCC(C)CSC[C@H]1O[C@@H](n2cnc3c(N)ncnc32)[C@H](O)[C@@H]1O` (stereo partly drawn) [2(G)(71), (2R, 3R, 4S, 5S)-2-(6-amino-9H-purin-9-yl)-5-{[(2-methylbutyl)-thio]methyl}tetrahydro-furan-3,4-diol], the activity at 50 µM amounted to 73% and the “MT-A—10: initial velocity as a percentage of the initial velocity with MTA as substrate” value came out at 77%.

Regarding `Nc1cccc(SC[C@H]2O[C@@H](n3cnc4c(N)ncnc43)[C@H](O)[C@@H]2O)c1` [2(G)(72), (2R, 3R, 4S, 5S)-2-(6-amino-9H-purin-9-yl)-5-{[(3-aminophenyl)thio]-methyl}tetrahydrofuran-3,4-diol], the activity at 50 µM amounted to 38% and the “MT-A—10: initial velocity as a percentage of the initial velocity with MTA as substrate” value was 33%.

Take `Nc1ncnc2c1ncn2[C@@H]1O[C@H](CSCc2ccccc2Cl)[C@@H](O)[C@H]1O` [2(G)(73), (2R, 3R, 4S, 5S)-2-(6-amino-9H-purin-9-yl)-5-{[(2-chlorobenzyl)thio]-methyl}tetrahydrofuran-3,4-diol]: the activity at 50 µM was 21% and the “MT-A—10: initial velocity as a percentage of the initial velocity with MTA as substrate” value turned out to be 30%.

Consider `Nc1ncnc2c1ncn2[C@@H]1O[C@H](CSCc2cccc(C(F)(F)F)c2)[C@@H](O)[C@H]1O` [2(G)(74)], for which the activity at 50 µM is 22% and the “MT-A—10: initial velocity as a percentage of the initial velocity with MTA as substrate” value was determined as 23%.

`Nc1ncnc2c1ncn2[C@@H]1O[C@H](CSCCCO)[C@@H](O)[C@H]1O` [2(G)(75)]: the activity at 50 µM was determined as 39% and the “MT-A—10: initial velocity as a percentage of the initial velocity with MTA as substrate” value was 32%.

As to `Nc1ncnc2c1ncn2[C@@H]1O[C@H](CSCc2ccc(Cl)cc2Cl)[C@@H](O)[C@H]1O` [2(G)(76), (2R, 3R, 4S, 5S)-2-(6-amino-9H-purin-9-yl)-5-{[(2,4-dichlorobenzyl)-thio]methyl}tetrahydro-furan-3,4-diol], the activity at 50 µM is 11% and the “MT-A—10: initial velocity as a percentage of the initial velocity with MTA as substrate” value was 14%.

On to `CCCC(CCO)SC[C@H]1O[C@@H](n2cnc3c(N)ncnc32)[C@H](O)[C@@H]1O` (stereo partly drawn) [2(G)(77)], for which the activity at 50 µM was found to be 6% and the “MT-A—10: initial velocity as a percentage of the initial velocity with MTA as substrate” value amounted to 3%.

Consider `Nc1ncnc2c1ncn2[C@@H]1O[C@H](CSCCCCCCO)[C@@H](O)[C@H]1O` [2(G)(78)], for which the activity at 50 µM stood at 6% and the “MT-A—10: initial velocity as a percentage of the initial velocity with MTA as substrate” value was determined as 3%.

Consider `Cc1csc(SC[C@H]2O[C@@H](n3cnc4c(N)ncnc43)[C@H](O)[C@@H]2O)n1` [2(G)(79), (2R, 3R, 4S, 5S)-2-(6-amino-9H-purin-9-yl)-5-{[(4-methyl-1,3-thiozol-2-yl)thio]methyl}tetrahydrofuran-3,4-diol], for which the activity at 50 µM was found to be 45% and the “MT-A—10: initial velocity as a percentage of the initial velocity with MTA as substrate” value is listed as 38%.

For `CCc1ccc(SC[C@H]2O[C@@H](n3cnc4c(N)ncnc43)[C@H](O)[C@@H]2O)cc1` [2(G)(80)], the activity at 50 µM was found to be 15% and the “MT-A—10: initial velocity as a percentage of the initial velocity with MTA as substrate” value is 13%.

In the case of `Nc1ncnc2c1ncn2[C@@H]1O[C@H](CSCCc2c[nH]c3ccccc23)[C@@H](O)[C@H]1O` [2(G)(81), (2R, 3R, 4S, 5S)-2-(6-amino-9H-purin-9-yl)-5-({[2-(1H-indol-3-yl)ethyl]thio}methyl)-tetrahydrofuran-3,4-diol], the activity at 50 µM came out at 18% and the “MT-A—10: initial velocity as a percentage of the initial velocity with MTA as substrate” value worked out at 18%.

For the compound `Nc1ncnc2c1ncn2[C@@H]1O[C@H](CSc2ccccc2C(F)(F)F)[C@@H](O)[C@H]1O` [2(G)(82), (2R, 3R, 4S, 5S)-2-(6-amino-9H-purin-9-yl)-5-({[2-(trifluoromethyl)-phenyl]thio}methyl)tetra-hydrofuran-3,4-diol], the activity at 50 µM was 1% and the “MT-A—10: initial velocity as a percentage of the initial velocity with MTA as substrate” value was found to be 1%.

In the case of `COc1ccc(CSC[C@H]2O[C@@H](n3cnc4c(N)ncnc43)[C@H](O)[C@@H]2O)c(OC)c1` [2(G)(83), (2R, 3R, 4S, 5S)-2-(6-amino-9H-purin-9-yl)-5-{[(2,4-dimethoxybenzyl)-thio]methyl}tetrahydro-furan-3,4-diol], the activity at 50 µM came out at 8% and the “MT-A—10: initial velocity as a percentage of the initial velocity with MTA as substrate” value came out at 5%.

In the case of `Cc1cc(N)c(SC[C@H]2O[C@@H](n3cnc4c(N)ncnc43)[C@H](O)[C@@H]2O)cc1C` [2(G)(84)], the activity at 50 µM was determined as 5% and the “MT-A—10: initial velocity as a percentage of the initial velocity with MTA as substrate” value came to 4%.

Take `Nc1ncnc2c1ncn2[C@@H]1O[C@H](CSc2nc3cccnc3s2)[C@@H](O)[C@H]1O` [2(G)(85), (2R, 3R, 4S, 5S)-2-(6-amino-9H-purin-9-yl)-5-[([1,3]thiozolo[5,4-b]pyridin-2-ylthio)-methyl]tetrahydrofuran-3,4-diol]: the activity at 50 µM is 2% and the “MT-A—10: initial velocity as a percentage of the initial velocity with MTA as substrate” value is on record as 10%.

For `COc1ccc2sc(SC[C@H]3O[C@@H](n4cnc5c(N)ncnc54)[C@H](O)[C@@H]3O)nc2c1` [2(G)(86), (2R, 3R, 4S, 5S)-2-(6-amino-9H-purin-9-yl)-5-{[(5-methoxy-1,3-benzothiozol-2-yl)thio]-methyl}tetrahydro-furan-3,4-diol], the activity at 50 µM was determined as 33% and the “MT-A—10: initial velocity as a percentage of the initial velocity with MTA as substrate” value was found to be 31%.

In the case of `Nc1ncnc2c1ncn2[C@@H]1O[C@H](CSc2cccs2)[C@@H](O)[C@H]1O` [2(G)(87), (2R, 3R, 4S, 5S)-2-(6-amino-9H-purin-9-yl)-5-[(2-thienylthio)methyl]-tetrahydrofuran-3,4-diol], the activity at 50 µM was 33% and the “MT-A—10: initial velocity as a percentage of the initial velocity with MTA as substrate” value was found to be 36%.

In the case of `CCOC(=O)CSC[C@H]1O[C@@H](n2cnc3c(N)ncnc32)[C@H](O)[C@@H]1O` [2(G)(88), ethyl ({[(2S, 3S, 4R, 5R)-5-(6-amino-9H-purin-9-yl)-3,4-dihydroxytetrahydro-furan-2-yl]methyl}thio)acetate], the activity at 50 µM is 33% and the “MT-A—10: initial velocity as a percentage of the initial velocity with MTA as substrate” value is listed as 25%.
